Holding throughout (assay type): functional
Test [1] concerns MSC. Description: Induction of osteogenic activity in human MSC assessed as cell differentiation after 14 days by alizarin red staining-based spectrometry relative to vehicle-treated control.
The nature of test [2]: (§1) Induction of osteogenic activity in human MSC assessed as cell differentiation at 1 uM after 14 days by alizarin red staining-based spectrometry relative to vehicle-treated control.
Test [3] concerns MSC. Described as §1.
The test system of test [4] is MSC. Description: Induction of osteogenic activity in human MSC assessed as cell differentiation at 1 uM after 7 days by alizarin red staining-based spectrometry relative to vehicle-treated control.
The subject of test [5] is MSC. As to the kind of experiment: Induction of osteogenic activity in human MSC assessed as increase in ON level at 1 uM after 14 days by quantitative RT-PCR analysis relative to control.
The test system of test [6] is MSC. As to the kind of experiment: Induction of osteogenic activity in human MSC assessed as increase in Dlx5 level at 1 uM after 14 days by quantitative RT-PCR analysis relative to control.
In test [7] the test system is MSC. Description: Induction of osteogenic activity in human MSC assessed as increase in cFOS level at 1 uM after 14 days by quantitative RT-PCR analysis relative to control.
Test [8] has as its system MSC. As to the kind of experiment: Induction of osteogenic activity in human MSC assessed as increase in cbfa1 level at 1 uM after 14 days by quantitative RT-PCR analysis relative to control.
In test [9] the test system is MSC. As to the kind of experiment: Induction of osteogenic activity in human MSC assessed as increase in Cola1 level at 1 uM after 14 days by quantitative RT-PCR analysis relative to control.
For test [10], the system named is MSC. Description: Induction of osteogenic activity in human MSC assessed as increase in IGF1 level at 1 uM after 14 days by quantitative RT-PCR analysis relative to control.
The test system of test [11] is MSC. Description: Induction of osteogenic activity in human MSC assessed as increase in OP level at 1 uM after 14 days by quantitative RT-PCR analysis relative to control.
The subject of test [12] is MSC. As to the kind of experiment: Induction of osteogenic activity in human MSC assessed as increase in Sp7 level at 1 uM after 14 days by quantitative RT-PCR analysis relative to control.
The subject of test [13] is MSC. As to the kind of experiment: Induction of osteogenic activity in human MSC assessed as increase in ALP level at 1 uM after 14 days by quantitative RT-PCR analysis relative to control.
In test [14] the test system is MSC. Description: Induction of osteogenic activity in human MSC assessed as cell differentiation at 10 nM after 14 days by alizarin red staining-based spectrometry.

Activity calls are given as the source filed them. The calls are words filed in the database; no cut-off is given here. A value given as a limit tells only on which side of the number the result lay.

The record followed here is ChEMBL document CHEMBL3108693, “Design, synthesis, and osteogenic activity of daidzein analogs on human mesenchymal stem cells” (2014).

With `C#CCOc1ccc2c(=O)c(-c3ccc(O)cc3)coc2c1`, the Activity entry in the test on MSC [1] is “Dose-dependent effect”. The “fold change (FC)” value in test [2] is on record as 1.6.

For `CC1(C)C=Cc2c(ccc3c(=O)c(-c4ccc(B5OC(C)(C)C(C)(C)O5)cc4)coc23)O1`, in the test with MSC [1], the Activity entry was “Dose-dependent effect”.

For the molecule `CCCCCCOc1ccc2c(=O)c(-c3ccc(O)cc3)coc2c1`, the Activity result with MSC [1] is “Dose-dependent effect”. Also, the “fold change (FC)” value in test [2] was 1.3.

Consider `O=c1c(-c2ccc(O)cc2)coc2cc(O)ccc12`, for which, in the test with MSC [1], the Activity result was “Dose-dependent effect”. Further, the result with MSC [3] was Active.

For `CCCCOc1ccc2c(c1)OCC(c1ccc(O)cc1)C2` (centres undefined), in the test with MSC [1], the Activity result was “Dose-dependent effect”.

Take `O=c1c(-c2ccc(O)cc2)coc2cc(OC3CCCC3)ccc12`: the Activity entry with MSC [1] is “Dose-dependent effect”. Further, the outcome in the test with MSC [4] was Active. The “fold change (FC)” value in test [2] was determined as 1.3.

As to `O=c1c(-c2ccc(O)cc2)coc2cc(OCCN3CCCCC3)ccc12`, the Activity result in the test with MSC [1] was “Dose-dependent effect”. In addition, in test [2], the “fold change (FC)” value is given as over 2.4.

Regarding `CC(C)COc1ccc2c(=O)c(-c3ccc(O)cc3)coc2c1`, in the test with MSC [1], the Activity entry is “Dose-dependent effect”. In addition, in the test on MSC [4], the result was Active. Further, the “fold change (FC)” value in [2] was found to be 1.3.

As to `COc1ccc(NC(=O)c2ccc(OC)cc2OC)cc1`, the Activity result in the test on MSC [1] is “Dose-dependent effect”. In addition, in test [2], the “fold change (FC)” value was determined as 1.3.

For the molecule `C=CCOc1ccc2c(=O)c(-c3ccc(O)cc3)coc2c1`, in the test with MSC [1], the Activity result was “Dose-dependent effect”. Further, the outcome in the test with MSC [4] was Active. In [2], the “fold change (FC)” value came to 1.3.

As to `CCCCOc1ccc2c(=O)c(-c3ccc(O)cc3)coc2c1`, in the test with MSC [1], the Activity entry was “Dose-dependent effect”. Moreover, the “fold change (FC)” value in test [2] is 1.3.

With `CC1(C)C=Cc2cc3c(cc2O1)OCC(c1ccc(O)cc1)C3` (centres undefined), the Activity entry with MSC [1] is “Dose-dependent effect”. Besides, in test [2], the “fold change (FC)” value stood at 1.3.

As to `COc1ccc(C(=O)Nc2ccc(O)cc2)c(OC)c1`, in the test with MSC [1], the Activity entry was “Dose-dependent effect”. Also, the “fold change (FC)” value in [2] is recorded as 1.3.

`CC1(C)C=Cc2c(ccc3c(=O)c(-c4ccc(O)cc4)coc23)O1`: the Activity result in the test with MSC [1] was “Dose-dependent effect”.

Consider `O=c1c(-c2ccc(O)cc2)coc2cc(OCCN3CCCC3)ccc12`, for which, in the test with MSC [1], the Activity entry was “Dose-dependent effect”.

As to `CCOc1ccc2c(=O)c(-c3ccc(O)cc3)coc2c1`, the Activity result in the test with MSC [1] is “Dose-dependent effect”. Also, in test [2], the “fold change (FC)” value came to 1.6.

`CN(C)CCOc1ccc2c(=O)c(-c3ccc(O)cc3)coc2c1`: the Activity entry in the test on MSC [1] was “Dose-dependent effect”.

For `Cc1cc2c(ccc3c(=O)c(-c4ccc(O)cc4)coc32)o1`, the Activity entry in the test on MSC [1] was “Dose-dependent effect”. Further, the “fold change (FC)” value in test [2] stood at 1.6.

In the case of `CCCOc1ccc2c(=O)c(-c3ccc(O)cc3)coc2c1`, the Activity result with MSC [1] is “Dose-dependent effect”. Also, the outcome in the test on MSC [5], in the test with MSC [6], with MSC [7] and with MSC [8] was inactive. The result with MSC [9], with MSC [10], in the test on MSC [11], in the test on MSC [12], in the test with MSC [13] and with MSC [4] was Active. Further, in [2], the “fold change (FC)” value turned out to be 1.3.

For `CC1(C)CCc2c(ccc3c2OCC(c2ccc(O)cc2)C3=O)O1` (centres undefined), in the test on MSC [1], the Activity entry is “Dose-dependent effect”. For the same molecule, the “fold change (FC)” value in test [2] is 1.6.

Consider `CC#C[C@]1(O)CC[C@H]2[C@@H]3CCc4cc(O)ccc4[C@H]3CC[C@@]21C`, for which the outcome in the test on MSC [14] was Active.

With `CC(C)Oc1ccc2c(=O)c(-c3ccc(O)cc3)coc2c1`, the Activity result with MSC [1] is “Dose-dependent effect”. Further, the “fold change (FC)” value in test [2] came out at 1.6.

As for `COc1ccc(C(=O)Nc2ccc(OCC(C)C)cc2)c(OC)c1`, in the test on MSC [1], the Activity entry was “Dose-dependent effect”. For the same molecule, the “fold change (FC)” value in [2] is 1.6.

Consider `CC1(C)CCc2c(ccc3c2OCC(c2ccc(O)cc2)C3)O1` (centres undefined), for which the Activity entry in the test with MSC [1] was “Dose-dependent effect”.
